According to article PMC9299836 (eLife, 2022):

Molecular target: mGluR2 (Mus musculus, UniProt Q14BI2, A548F)
Experiment: smFRET of azi-CRD: cross-correlation of donor and acceptor intensities (CRD dynamics) and HMM transition density plots;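 note: single detergent-solubilized receptors captured on antibody-coated flow cells via C-terminal FLAG-tag, imaged by smFRET, donor and acceptor intensity traces from three independent biological replicates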
Conditions: 0μM Glutamate + GPT/Pyruvate + 10μM BINA, N 3

mGluR2, sequence (Q14BI2 19-872 A548F): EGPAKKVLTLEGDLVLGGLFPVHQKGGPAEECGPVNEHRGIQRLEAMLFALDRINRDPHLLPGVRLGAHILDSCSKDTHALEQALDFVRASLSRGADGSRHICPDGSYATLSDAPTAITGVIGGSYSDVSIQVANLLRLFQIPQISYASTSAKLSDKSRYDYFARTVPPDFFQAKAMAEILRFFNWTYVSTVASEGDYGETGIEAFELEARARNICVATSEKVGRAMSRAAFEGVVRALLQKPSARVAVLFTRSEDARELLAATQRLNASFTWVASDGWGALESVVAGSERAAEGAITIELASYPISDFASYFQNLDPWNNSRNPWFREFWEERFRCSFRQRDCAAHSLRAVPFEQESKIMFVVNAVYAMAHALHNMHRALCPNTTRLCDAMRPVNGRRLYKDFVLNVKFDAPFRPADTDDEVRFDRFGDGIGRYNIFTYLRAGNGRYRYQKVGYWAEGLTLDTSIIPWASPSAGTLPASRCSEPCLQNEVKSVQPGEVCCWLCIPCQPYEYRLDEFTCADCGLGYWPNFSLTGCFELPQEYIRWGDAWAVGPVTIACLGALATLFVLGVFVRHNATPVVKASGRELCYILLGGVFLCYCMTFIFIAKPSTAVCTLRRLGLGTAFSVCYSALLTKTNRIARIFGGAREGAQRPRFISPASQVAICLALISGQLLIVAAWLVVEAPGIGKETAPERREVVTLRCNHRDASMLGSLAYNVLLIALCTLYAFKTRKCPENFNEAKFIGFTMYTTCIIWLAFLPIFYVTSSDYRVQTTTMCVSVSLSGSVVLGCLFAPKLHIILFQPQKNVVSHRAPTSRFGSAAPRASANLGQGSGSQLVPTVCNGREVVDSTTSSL

## Cc1c(OCc2cccc(-c3ccc(C(=O)O)cc3)c2)cc2c(c1C)C(=O)C(C1CCCC1)C2 (centres unmarked) [BINA]
Time 0 s
  Cross Correlation, Mean: -0.309
Time 0.05 s
  Cross Correlation, Mean: -0.1732
Time 0.1 s
  Cross Correlation, Mean: -0.1405
Time 0.15 s
  Cross Correlation, Mean: -0.1268
Time 0.2 s
  Cross Correlation, Mean: -0.1138
Time 0.25 s
  Cross Correlation, Mean: -0.1079
Time 0.3 s
  Cross Correlation, Mean: -0.1007
Time 0.35 s
  Cross Correlation, Mean: -0.09667
Time 0.4 s
  Cross Correlation, Mean: -0.08889
Time 0.45 s
  Cross Correlation, Mean: -0.08933
Time 0.5 s
  Cross Correlation, Mean: -0.08286
Time 0.55 s
  Cross Correlation, Mean: -0.07956
Time 0.6 s
  Cross Correlation, Mean: -0.07731
Time 0.65 s
  Cross Correlation, Mean: -0.07407
Time 0.7 s
  Cross Correlation, Mean: -0.07365
Time 0.75 s
  Cross Correlation, Mean: -0.06697
Time 0.8 s
  Cross Correlation, Mean: -0.06199
Time 0.85 s
  Cross Correlation, Mean: -0.06042
Time 0.9 s
  Cross Correlation, Mean: -0.05216
Time 0.95 s
  Cross Correlation, Mean: -0.05689
Time 1 s
  Cross Correlation, Mean: -0.0539
Time 1.05 s
  Cross Correlation, Mean: -0.05356
Time 1.1 s
  Cross Correlation, Mean: -0.0518
Time 1.15 s
  Cross Correlation, Mean: -0.0477
Time 1.2 s
  Cross Correlation, Mean: -0.04715
Time 1.25 s
  Cross Correlation, Mean: -0.04267
Time 1.3 s
  Cross Correlation, Mean: -0.04926
Time 1.35 s
  Cross Correlation, Mean: -0.04133
Time 1.4 s
  Cross Correlation, Mean: -0.03906
Time 1.45 s
  Cross Correlation, Mean: -0.0385
Time 1.5 s
  Cross Correlation, Mean: -0.035
Time 1.55 s
  Cross Correlation, Mean: -0.03506
Time 1.6 s
  Cross Correlation, Mean: -0.03291
Time 1.65 s
  Cross Correlation, Mean: -0.03291
Time 1.7 s
  Cross Correlation, Mean: -0.03331
Time 1.75 s
  Cross Correlation, Mean: -0.03095
Time 1.8 s
  Cross Correlation, Mean: -0.02869
Time 1.85 s
  Cross Correlation, Mean: -0.03476
Time 1.9 s
  Cross Correlation, Mean: -0.02485
Time 1.95 s
  Cross Correlation, Mean: -0.02573
Time 2 s
  Cross Correlation, Mean: -0.0316
Time 2.05 s
  Cross Correlation, Mean: -0.03349
Time 2.1 s
  Cross Correlation, Mean: -0.02361
Time 2.15 s
  Cross Correlation, Mean: -0.02192
Time 2.2 s
  Cross Correlation, Mean: -0.02164
Time 2.25 s
  Cross Correlation, Mean: -0.01683
Time 2.3 s
  Cross Correlation, Mean: -0.01949
Time 2.35 s
  Cross Correlation, Mean: -0.01229
Time 2.4 s
  Cross Correlation, Mean: -0.01405
Time 2.45 s
  Cross Correlation, Mean: -0.01492
